Reference: PubChem BioAssay AID248 (DTP/NCI, 2004)
“And” between values parts separate entries of the source, which are not always exact repeats. Identical values can stand only once. Toxic doses and inconclusive results are not listed. No stated cut-off is given here; in the data, active means T/C of 150% or more; inactive means T/C below 125%.

Tested on: L1210 leukemia ip in BDF1 mice, survival T/C
Assay: NCI In Vivo Anticancer Drug Screen. Data for tumor model L1210 Leukemia (intraperitoneal) in B6D2F1 (BDF1) mice
Conditions: endpoint: mean survival time, higher = longer survival
In short: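 Read-out is survival time, reported as the treated-group measurement over the vehicle-control measurement.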

[1] = dose: 100.0 mg/kg/injection, schedule: Q04DX003 (ip), vehicle: Klucel (hydroxypropylcellulose) (HPC)
[2] = dose: 200.0 mg/kg/injection, schedule: Q04DX003 (ip), vehicle: Klucel (hydroxypropylcellulose) (HPC)
[3] = dose: 400.0 mg/kg/injection, schedule: Q04DX003 (ip), vehicle: Klucel (hydroxypropylcellulose) (HPC)
[4] = dose: 100.0 mg/kg/injection, schedule: Q01DX001 (ip), vehicle: saline with Tween-80
[5] = dose: 200.0 mg/kg/injection, schedule: Q01DX001 (ip), vehicle: saline with Tween-80
[6] = dose: 400.0 mg/kg/injection, schedule: Q01DX001 (ip), vehicle: saline with Tween-80
[7] = dose: 100.0 mg/kg/injection, schedule: Q01DX001 (ip), vehicle: saline
[8] = dose: 100.0 mg/kg/injection, schedule: Q04DX002 (ip), vehicle: Klucel (hydroxypropylcellulose) (HPC)
[9] = dose: 200.0 mg/kg/injection, schedule: Q04DX002 (ip), vehicle: Klucel (hydroxypropylcellulose) (HPC)
[10] = dose: 50.0 mg/kg/injection, schedule: Q01DX009 (ip), vehicle: saline with Tween-80
[11] = dose: 100.0 mg/kg/injection, schedule: Q04DX003 (ip), vehicle: saline with Tween-80
[12] = dose: 200.0 mg/kg/injection, schedule: Q04DX003 (ip), vehicle: saline with Tween-80
[13] = dose: 400.0 mg/kg/injection, schedule: Q04DX003 (ip), vehicle: saline with Tween-80
[14] = dose: 6.25 mg/kg/injection, schedule: Q04DX003 (ip), vehicle: saline
[15] = dose: 12.5 mg/kg/injection, schedule: Q04DX003 (ip), vehicle: saline
[16] = dose: 25.0 mg/kg/injection, schedule: Q04DX003 (ip), vehicle: saline
[17] = dose: 100.0 mg/kg/injection, schedule: Q04DX003 (ip), vehicle: saline
[18] = dose: 200.0 mg/kg/injection, schedule: Q04DX003 (ip), vehicle: saline

Measured: T/C

CC1=NN(c2ccc(S(=O)(=O)O)cc2)/C(=N/N=C(N)N)C1
inactive: dose: 15.0 mg/kg/injection, schedule: Q01DX Z (ip), vehicle: carboxymethylcellulose (CMC) 96 % of control | dose: 30.0 mg/kg/injection, schedule: Q01DX Z (ip), vehicle: carboxymethylcellulose (CMC) 96 % of control | dose: 60.0 mg/kg/injection, schedule: Q01DX Z (ip), vehicle: carboxymethylcellulose (CMC) 97 % of control and 100 % of control | dose: 120.0 mg/kg/injection, schedule: Q01DX Z (ip), vehicle: carboxymethylcellulose (CMC) 100 % of control and 102 % of control | dose: 240.0 mg/kg/injection, schedule: Q01DX Z (ip), vehicle: carboxymethylcellulose (CMC) 101 % of control | dose: 480.0 mg/kg/injection, schedule: Q01DX Z (ip), vehicle: carboxymethylcellulose (CMC) 97 % of control

O=S(=O)(CCCc1ccccc1)c1ccccc1
inactive: dose: 50.0 mg/kg/injection, schedule: Q01DX001 (ip), vehicle: other 102 % of control | dose: 100.0 mg/kg/injection, schedule: Q01DX001 (ip), vehicle: other 102 % of control | [1] 98 % of control | dose: 200.0 mg/kg/injection, schedule: Q01DX001 (ip), vehicle: other 104 % of control | [2] 100 % of control | dose: 400.0 mg/kg/injection, schedule: Q01DX001 (ip), vehicle: other 116 % of control | [3] 102 % of control

CCCCCCCCCCCC(CCCC)CCCC
inactive: [4] 93 % of control | [5] 104 % of control | [6] 101 % of control

O=C(O)c1ccc2c3c(ccc(C(=O)O)c13)CC2
inactive: [7] 104 % of control

CC1(C)N=C(N)N=C(N)N1c1cccc(C(=O)c2ccccc2)c1
inactive: dose: 25.0 mg/kg/injection, schedule: Q01DX001 (ip), vehicle: saline with Tween-80 98 % of control | dose: 50.0 mg/kg/injection, schedule: Q01DX001 (ip), vehicle: saline with Tween-80 90 % of control

CSc1ccc(NC(=O)Nc2ccccc2)cc1
inactive: dose: 100.0 mg/kg/injection, schedule: Q01DX009 (ip), vehicle: Klucel (hydroxypropylcellulose) (HPC) 116 % of control | [1] 95 % of control | dose: 200.0 mg/kg/injection, schedule: Q01DX009 (ip), vehicle: Klucel (hydroxypropylcellulose) (HPC) 106 % of control | [2] 93 % of control | dose: 400.0 mg/kg/injection, schedule: Q01DX009 (ip), vehicle: Klucel (hydroxypropylcellulose) (HPC) 106 % of control | [3] 95 % of control

CNCC(=O)Nc1ccc(NC(=O)CNC)cc1
inactive: [8] 96 % of control | [9] 104 % of control

CCCCCCCCCC(=O)OCCN1CCN(CCCN2c3ccccc3Sc3ccc(C(F)(F)F)cc32)CC1
inactive: dose: 1.56 mg/kg/injection, schedule: Q01DX009 (ip), vehicle: alcohol 107 % of control | dose: 25.0 mg/kg/injection, schedule: Q04DX003 (ip), vehicle: saline with Tween-80 106 % of control

O=C(c1ccccc1)c1c2ccccc2cc2ccccc12
inactive: [10] 91 % of control | dose: 100.0 mg/kg/injection, schedule: Q01DX009 (ip), vehicle: saline with Tween-80 90 % of control | [11] 89 % of control | [12] 89 % of control | [13] 90 % of control

CN(C(=O)c1ccccc1C(=O)c1n[nH]c2ccccc12)c1ccccc1
inactive: dose: 50.0 mg/kg/injection, schedule: Q04DX002 (ip), vehicle: Klucel (hydroxypropylcellulose) (HPC) 104 % of control | [8] 97 % of control | [9] 104 % of control

CC(C)C(C=O)(CCN(C)Cc1ccccc1)c1cccc2ccccc12 (configuration not stated)
inactive: [11] 93 % of control | [12] 92 % of control | [13] 100 % of control

Cc1nc(C(N)=O)c(=O)[nH]c1C
inactive: [14] 95 % of control | [15] 97 % of control | [16] 94 % of control | dose: 50.0 mg/kg/injection, schedule: Q04DX003 (ip), vehicle: saline 101 % of control | [1] 102 % of control | [2] 100 % of control | [3] 100 % of control

COC(=O)c1ccc(N(C)C/C(CNc2nc(NC(C)=O)nc(SCc3ccccc3)c2[N+](=O)[O-])=N/O)cc1
inactive: [4] 92 % of control | [5] 86 % of control | [6] 96 % of control

ONC(=Nc1ccccc1)c1ccccc1
inactive: [17] 104 % of control | [18] 101 % of control

Cn1c(=O)oc2ccccc2c1=S
inactive: [17] 96 % of control | [18] 100 % of control | dose: 400.0 mg/kg/injection, schedule: Q04DX003 (ip), vehicle: saline 100 % of control

CCOC(=O)/C(C)=N/Nc1cc(Cl)ccc1O
inactive: [7] 95 % of control | dose: 200.0 mg/kg/injection, schedule: Q01DX001 (ip), vehicle: saline 94 % of control | dose: 400.0 mg/kg/injection, schedule: Q01DX001 (ip), vehicle: saline 106 % of control

NNC(=O)c1cccc([N+](=O)[O-])c1
inactive: dose: 12.5 mg/kg/injection, schedule: Q04DX003 (ip), vehicle: Klucel (hydroxypropylcellulose) (HPC) 100 % of control | dose: 25.0 mg/kg/injection, schedule: Q04DX003 (ip), vehicle: Klucel (hydroxypropylcellulose) (HPC) 96 % of control

CCCCSC(=N)N
inactive: [7] 94 % of control

O=C(/C=C/c1ccccc1)NC(=S)Nc1ccccc1F
inactive: dose: 12.5 mg/kg/injection, schedule: Q01DX009 (ip), vehicle: saline with Tween-80 106 % of control and 88 % of control | dose: 25.0 mg/kg/injection, schedule: Q01DX009 (ip), vehicle: saline with Tween-80 95 % of control and 107 % of control | [10] 97 % of control | [4] 92 % of control | dose: 100.0 mg/kg/injection, schedule: Q04DX002 (ip), vehicle: alcohol 95 % of control and 90 % of control | [11] 94 % of control | [5] 90 % of control | dose: 200.0 mg/kg/injection, schedule: Q01DX009 (ip), vehicle: saline with Tween-80 89 % of control | dose: 200.0 mg/kg/injection, schedule: Q04DX002 (ip), vehicle: alcohol 101 % of control | [12] 87 % of control | [6] 87 % of control | dose: 400.0 mg/kg/injection, schedule: Q01DX009 (ip), vehicle: saline with Tween-80 86 % of control | dose: 400.0 mg/kg/injection, schedule: Q04DX002 (ip), vehicle: alcohol 102 % of control | [13] 86 % of control

CN1CCN(CCNc2ccc(CO)c3sc4ccccc4c(=O)c23)CC1
inactive: dose: 31.25 mg/kg/injection, schedule: Q01DX009 (ip), vehicle: Klucel (hydroxypropylcellulose) (HPC) 100 % of control | dose: 62.5 mg/kg/injection, schedule: Q01DX009 (ip), vehicle: Klucel (hydroxypropylcellulose) (HPC) 97 % of control | dose: 125.0 mg/kg/injection, schedule: Q01DX009 (ip), vehicle: Klucel (hydroxypropylcellulose) (HPC) 105 % of control

Nc1c(Cl)ncn2c(=O)n(Cc3ccccc3)nc12
inactive: dose: 100.0 mg/kg/injection, schedule: Q01DX001 (ip), vehicle: carboxymethylcellulose (CMC) 96 % of control | dose: 200.0 mg/kg/injection, schedule: Q01DX001 (ip), vehicle: carboxymethylcellulose (CMC) 105 % of control | dose: 400.0 mg/kg/injection, schedule: Q01DX001 (ip), vehicle: carboxymethylcellulose (CMC) 105 % of control

CC1C[N+](C)=C2CCCCC2=C1N (configuration not stated)
inactive: dose: 6.25 mg/kg/injection, schedule: Q01DX009 (ip), vehicle: saline 105 % of control | [14] 96 % of control | dose: 12.5 mg/kg/injection, schedule: Q01DX009 (ip), vehicle: saline 98 % of control | [15] 98 % of control | dose: 25.0 mg/kg/injection, schedule: Q01DX009 (ip), vehicle: saline 102 % of control | [16] 108 % of control
